≈ marks a conversion by molar mass, not a printed value. Bounds are passed on as bounds.

A short description of the data set: Solubility in aqueous pH buffers and bio-relevant fluids at 37° C. The class given is physicochemical. As to conditions: for Solubility 2 h / Solubility 24 h: LOQ: 1.5 μg/mL; for solubility at 2 h / solubility at 24 h: thermodynamic from solid. How it is done:
Solubility of the Form B and sodium salt Form F was measured in 7 aqueous pH buffers and bio-relevant fluids including pH 1.2 HCl solution (0.2N), pH 4.5 acetate buffer (50 mM), pH 6.8 phosphate buffer (50 mM), pH 2.0 SGF, pH 6.5 FaSSIF-v1, pH 5.0 FeSSIF-v1 and water at 37° C. for 2 h and 24 h, respectively.
Accurate 20 mg of the Form B was weighed into a 20 mL glass vial. Then, 10 mL of solubility medium was added. The sodium salt Form F amount used was equivalent to 20 mg anhydrous form. Obtained suspensions were stirred at 37° C. at 400 rpm and sampled at 2 hours and at 24 hours, respectively. The samples were centrifuged at 37° C. at 4,000 rpm for 4 min. Supernatants were analyzed by HPLC and pH meter for solubility and pH value, respectively. Residual solids (wet cakes) from the 24 hours samples were also characterized by XRPD to determine physical form.

Setting [1] is: pH 4.5 acetate buffer (50 mM), 37° C.
Setting [2] is: pH 6.8 phosphate buffer (50 mM), 37° C.
The mark [3] stands for this setting: simulated gastric fluid, SGF, pH 2.0, 37° C.
Setting [4] is: simulated gastric fluid, pH 1.2 HCl solution (0.2N), 37° C.

The solubility is the concentration that dissolves in the medium under given conditions. The low end stands for a poorly soluble substance, the high end for a readily soluble substance. As for `CCN(C)S(=O)(=O)Nc1ccc(F)c(Oc2ccc3ncn([C@H]4COC5(CCN(C(=O)CC6(O)CCN(c7cc8c(cc7F)c(N7CCC(=O)NC7=O)nn8C)CC6)CC5)C4)c(=O)c3c2)c1C#N` [Compound 1 Form B], the “pH of supernatant 24 h” value reads like this: (FaSSIF-v1, pH 6.5, 37° C.) “pH = 6.5”; (FeSSIF-v1, pH 5.0, 37° C.) “(pH = 5.0)”; (SGF, pH 2.0, 37° C.) “(pH = 2.1)”; (Water, 37° C.) “(pH = 7.0)”; (pH 1.2 HCl solution (0.2N), 37° C.) “(pH = 0.9)”; under setting [1], “(pH = 4.5)”. Also, the “pH of supernatant 24 h” value under setting [2] was “(pH = 6.8)”. The “Solubility 2 h” value is, setting by setting: (FaSSIF-v1, pH 6.5, 37° C.) “<LOQ”; (Water, 37° C.) “<LOQ”; under setting [1], “<LOQ”; under setting [2], “<LOQ”. Further, the “Solubility 24 h” value (FaSSIF-v1, pH 6.5, 37° C.) was “<LOQ”; the “Solubility 24 h” value under setting [1] is “<LOQ”; the “Solubility 24 h” value under setting [2] is on record as “<LOQ”. For the same compound, the “pH range of morphic form stability in aqueous media” value (aqueous media) is given as 1.2 to 7.0. For the same compound, under “aqueous media, 37° C.”, the “pH dependence of solubility” value is “pH dependent solubility”. For the same compound, for the setting “residual solids, 24 hours, XRPD”, the “Form change after solubility test” value is “no form change”. Moreover, the solubility at 2 h under setting [3] was 3.8 µg/mL (≈ 3.97 µM); the solubility at 2 h under setting [4] was 11.7 µg/mL (≈ 12.2 µM); the concentration in solution (FeSSIF-v1, pH 5.0, 37° C.) (solubility at 2 h) came to 4.8 µg/mL (≈ 5.01 µM). This compound also came in with a solubility at 24 h under setting [3] of 5.2 µg/mL (≈ 5.43 µM); a solubility at 24 h under setting [4] of 28 µg/mL (≈ 29.2 µM); a solubility at 24 h (FeSSIF-v1, pH 5.0, 37° C.) of 6.7 µg/mL (≈ 6.99 µM); a solubility at 24 h (Water, 37° C.) of 4.6 µg/mL (≈ 4.8 µM).
